Where “and” joins values, the source holds several entries; their conditions need not be identical. Identical values can stand only once.
System: VCA0107-GFP
Experiment: Qrr4 regulation of VCA0107-GFP translational fusion, anhydrous tetracycline-inducible qrr4 (S4 Fig)
Assay type: cell-based, E. coli
Excerpt: We examined whether Qrr regulation of CqsS is direct or indirect using a CqsS-mKATE2 translational fusion in E. coli expressing inducible qrr4. We reasoned that, if CqsS production is controlled by Qrr4, repression of CqsS-mKATE2 should occur when Qrr4 is induced. We verified that our system works by showing that inducible Qrr4 is capable of repressing a previously-identified direct target, VCA0107-GFP [24]. However, no repression of CqsS-mKATE2 occurred following induction of Qrr4 (S4 Fig).
To assay qrr4 regulation of cqsS, the relative fluorescence of translational fusions (VCA0107B-GFP and CqsS-mKATE2) was measured in E. coli BWR1. E. coli carrying one of these plasmids also contained either an empty plasmid (pZA31) or pZA31 carrying anhydrous tetracycline-inducible qrr4. Qrr4-mediated repression of CqsS-mKATE2 was assessed. VCA0107-GFP is a known Qrr4-repressed target and was used as a positive control to show the system was functional. Overnight cultures were diluted 1:50 into fresh medium and aliquotted in triplicate into 96 well plates. […] OD600 and fluorescence were assessed using an Envision 2103 Multilabel Reader (Perkin Elmer).
Supplementary file pgen.1006826.s008.tiff: S4 Fig Qrr4 indirectly regulates cqsS. Fluorescence from plasmid-encoded VCA0107-GFP (circles) and CqsS-mKATE2 (squares) was measured in E. coli. Either an empty vector (pZA31-lucNB, black) or pZA31-lucNB carrying tetracycline-inducible qrr4 (pYS245, red) was present in each strain. VCA0107 encodes a type VI secretion system component that is regulated by Qrr4. Data represent two experiments conducted in triplicate. Error bars represent standard errors of the mean. (TIFF) Click here for additional data file.

Cc1c2c(c(O)c3c(O)cccc13)C(=O)[C@]1(O)C(=O)C(C(N)=O)=C(O)[C@@H](N(C)C)[C@@H]1C2 [aTc]
Relative reporter signal, experimental averages (pVC107 Qrr4, aTc 0.0976562 ng/ml (normalization point)): 1
Relative reporter signal, experimental averages (pVC107 Qrr4, aTc 0.195312 ng/ml, normalized to 0.0976562 ng/ml): 1.025 and 0.934
Relative reporter signal, experimental averages (pVC107 Qrr4, aTc 0.390625 ng/ml, normalized to 0.0976562 ng/ml): 1.044 and 1.031
Relative reporter signal, experimental averages (pVC107 Qrr4, aTc 0.78125 ng/ml, normalized to 0.0976562 ng/ml): 1.069 and 1.04
Relative reporter signal, single replicates (pVC107 Qrr4, aTc 1.5625 ng/ml): 0.9829 and 1.022 and 1.084 and 1.082 and 1.066 and 1.076
Relative reporter signal, experimental averages (pVC107 Qrr4, aTc 1.5625 ng/ml, normalized to 0.0976562 ng/ml): 1.075 and 1.029
Relative reporter signal, single replicates (pVC107 Qrr4, aTc 3.125 ng/ml): 0.9883 and 0.983 and 1.044 and 1.076 and 1.038 and 1.063
Relative reporter signal, experimental averages (pVC107 Qrr4, aTc 3.125 ng/ml, normalized to 0.0976562 ng/ml): 1.059 and 1.005
Relative reporter signal, single replicates (pVC107 Qrr4, aTc 6.25 ng/ml): 0.8986 and 0.9025 and 1.018 and 1.038 and 1.0458 and 1.143
Relative reporter signal, experimental averages (pVC107 Qrr4, aTc 6.25 ng/ml, normalized to 0.0976562 ng/ml): 1.075 and 0.9397
Relative reporter signal, single replicates (pVC107 Qrr4, aTc 12.5 ng/ml): 0.8122 and 0.8585 and 0.963 and 0.9294 and 0.9674 and 1.0333
Relative reporter signal, experimental averages (pVC107 Qrr4, aTc 12.5 ng/ml, normalized to 0.0976562 ng/ml): 0.9767 and 0.8779
Relative reporter signal, single replicates (pVC107 Qrr4, aTc 25 ng/ml): 0.8439 and 0.8636 and 0.8571 and 0.6965 and 0.6285 and 0.7212
Relative reporter signal, experimental averages (pVC107 Qrr4, aTc 25 ng/ml, normalized to 0.0976562 ng/ml): 0.6821 and 0.8548
Relative reporter signal, single replicates (pVC107 Qrr4, aTc 50 ng/ml): 0.8785 and 0.8105 and 0.7819 and 0.6416 and 0.6171 and 0.6104
Relative reporter signal, experimental averages (pVC107 Qrr4, aTc 50 ng/ml, normalized to 0.0976562 ng/ml): 0.623 and 0.8236
Relative reporter signal, single replicates (pVC107 Qrr4, aTc 100 ng/ml): 0.9222 and 0.8261 and 0.8207 and 0.6781 and 0.6674 and 0.7021
Relative reporter signal, experimental averages (pVC107 Qrr4, aTc 100 ng/ml, normalized to 0.0976562 ng/ml): 0.6825 and 0.8563
Relative reporter signal, single replicates (pVC107 Qrr4, aTc 200 ng/ml): 0.9029 and 0.8931 and 0.8706 and 0.7542 and 0.8262 and 0.8413
Relative reporter signal, experimental averages (pVC107 Qrr4, aTc 200 ng/ml, normalized to 0.0976562 ng/ml): 0.8072 and 0.8889
Relative reporter signal, experimental averages (pVC107 vector, aTc 0.0976562 ng/ml (normalization point)): 1
Relative reporter signal, experimental averages (pVC107 vector, aTc 0.195312 ng/ml, normalized to 0.0976562 ng/ml): 1.1928 and 0.9542
Relative reporter signal, experimental averages (pVC107 vector, aTc 0.390625 ng/ml, normalized to 0.0976562 ng/ml): 1.239 and 0.9963
Relative reporter signal, single replicates (pVC107 vector, aTc 0.78125 ng/ml): 1.048 and 0.979 and 1.04 and 0.9279
Relative reporter signal, experimental averages (pVC107 vector, aTc 0.78125 ng/ml, normalized to 0.0976562 ng/ml): 1.09 and 0.9823
Relative reporter signal, single replicates (pVC107 vector, aTc 1.5625 ng/ml): 1.061 and 1.021 and 0.9897 and 0.9644 and 1.121 and 1.094
Relative reporter signal, experimental averages (pVC107 vector, aTc 1.5625 ng/ml, normalized to 0.0976562 ng/ml): 1.092 and 0.9917
Relative reporter signal, single replicates (pVC107 vector, aTc 3.125 ng/ml): 0.9263 and 0.9693 and 1.011 and 0.9278 and 1.0391 and 1.108
Relative reporter signal, experimental averages (pVC107 vector, aTc 3.125 ng/ml, normalized to 0.0976562 ng/ml): 1.024 and 0.9695
Relative reporter signal, single replicates (pVC107 vector, aTc 6.25 ng/ml): 0.9938 and 0.9834 and 0.9842 and 0.9532 and 1.085 and 1.105
Relative reporter signal, experimental averages (pVC107 vector, aTc 6.25 ng/ml, normalized to 0.0976562 ng/ml): 1.061 and 0.9736
Relative reporter signal, single replicates (pVC107 vector, aTc 12.5 ng/ml): 0.9967 and 0.9285 and 1.002 and 0.9658 and 1.022 and 1.055
Relative reporter signal, experimental averages (pVC107 vector, aTc 12.5 ng/ml, normalized to 0.0976562 ng/ml): 1.025 and 0.9655
Relative reporter signal, single replicates (pVC107 vector, aTc 25 ng/ml): 1.488 and 0.9589 and 0.9637 and 0.9614 and 1.035 and 1.177
Relative reporter signal, experimental averages (pVC107 vector, aTc 25 ng/ml, normalized to 0.0976562 ng/ml): 1.233 and 0.9614
Relative reporter signal, single replicates (pVC107 vector, aTc 50 ng/ml): 1.1512 and 1.025 and 1.023 and 0.9608 and 1.174 and 1.186
Relative reporter signal, experimental averages (pVC107 vector, aTc 50 ng/ml, normalized to 0.0976562 ng/ml): 1.17 and 1.003
Relative reporter signal, single replicates (pVC107 vector, aTc 100 ng/ml): 1.032 and 0.8995 and 0.9791 and 1.0414 and 1.344 and 1.183
Relative reporter signal, experimental averages (pVC107 vector, aTc 100 ng/ml, normalized to 0.0976562 ng/ml): 1.1863 and 0.9733
Relative reporter signal, single replicates (pVC107 vector, aTc 200 ng/ml): 1.427 and 1.005 and 1.106 and 1.055 and 1.369 and 1.3707
Relative reporter signal, experimental averages (pVC107 vector, aTc 200 ng/ml, normalized to 0.0976562 ng/ml): 1.389 and 1.0553
